According to patent US10251874B2, “Crystalline forms of a JAK inhibitor compound” (THERAVANCE BIOPHARMA R&D IP, LLC, priority 2017, dated 2019):
Like-named read-outs stand apart in the source and are kept apart here.

Legend:
[1] = test system: IL-13 induced STAT6 phosphorylation in BEAS-2B human lung epithelial cells; test: Assay 2: Cellular JAK potency assay: inhibition of IL-13 (AlphaScreen); format: cell-based; settings: BEAS-2B cells, read-out: pIC50, inhibition of IL-13 induced STAT6 phosphorylation (converted)
Protocol: The AlphaScreen JAM cellular potency assay was carried out by measuring interleukin-13 (IL-13, R&D Systems) induced STAT6 phosphorylation in BEAS-2B human lung epithelial cells (ATCC). The anti-STAT6 antibody (Cell Signaling Technologies) was conjugated to AlphaScreen acceptor beads (Perkin Elmer), while the anti-pSTAT6 (pTyr641) antibody (Cell Signaling Technologies) was biotinylated using EZ-Link Sulfo-NHS-Biotin (Thermo Scientific).
BEAS-2B cells were grown at 37° C. in a 5% CO2 humidified incubator in 50% DMEM/50% F-12 medium (Life Technologies) supplemented with 10% FBS (Hyclone), 100 U/mL penicillin, 100 μg/mL streptomycin (Life Technologies), and 2 mM
GlutaMAX (Life Technologies). On day 1 of the assay, cells were seeded at a 7,500 cells/well density in white poly-D-lysine-coated 384-well plates (Corning) with 25 μL medium, and were allowed to adhere overnight in the incubator. […] After a minimum of 2 h incubation, the assay plates were read on the EnVision plate reader. AlphaScreen luminescence signals were recorded and utilized to calculate the percent inhibition values based on DMSO and background controls.
For dose-response analysis, percent inhibition data were plotted vs. compound concentrations, and IC50 values were determined from a 4-parameter robust fit model with the Prism software. Results may also be expressed as the negative logarithm of the IC50 value, pIC50.

[2] = test system: IL-6 induced pSTAT3 in retina/choroid; test: Assay 13: Pharmacodynamic assay: inhibition of IL6-induced pSTAT3 in rats; format: in vivo, Lewis rats; settings: rat, IVT suspension of crystalline compound 1 of Example 2, 15 μg dose, 3 day pre-treatment
Protocol: The ability of a single intravitreal administration of test compound to inhibit IL-6 induced pSTAT3 was measured in rat retina/choroid homogenates.
Suspension formulations were prepared by combining crystalline compound 1 of Example 2 with 0.5% hydroxypropyl methylcellulose (HPMC E5 LV), 0.02% Tween 80, and 0.9% sodium chloride in purified water to attain target concentrations of 3 mg/mL and 10 mg/mL.
Female Lewis rats were intravitreally (IVT) dosed (5 μL per eye) with the suspension formulations or with the drug vehicle. Three days later, IL-6 (Peprotech; 0.1 mg/mL; 5 μL per eye) or vehicle was intravitreally administered to induce pSTAT3.
Ocular tissues were dissected one hour after the second IVT injection with IL-6. The retina/choroid tissues were homogenized and pSTAT3 levels were measured using an ELISA (Cell Signaling Technology). The percent inhibition of IL-6-induced pSTAT3 was calculated in comparison to the vehicle/vehicle and vehicle/IL-6 groups. Inhibition of greater than 100% reflects a reduction of pSTAT3 levels to below those observed in the vehicle/vehicle group.

[3] = test system: IL-5 mediated survival of human eosinophils; test: Assay 16: IL-5 mediated eosinophil survival assay; format: cell-based; settings: 72 h, read-out: pIC50, IL-5 mediated eosinophil survival (cell viability) (converted)
Protocol: The potency of the test compound for IL-5 mediated eosinophil survival was measured in human eosinophils isolated from human whole blood (AllCells). Because IL-5 signals through JAK, this assay provides a measure of JAK cellular potency. Human eosinophils were isolated from fresh human whole blood (AllCells) of healthy donors. Blood was mixed with 4.5% Dextran (Sigma-Aldrich) in a 0.9% sodium chloride solution (Sigma-Aldrich). Red blood cells were left to sediment for 35 minutes. The leukocyte rich upper layer was removed and layered over Ficoll-Paque (GE Healthcare) and centrifuged at 600 g for 30 minutes. The plasma and mononuclear cell layers were removed before the granulocyte layer was lysed with water to remove any contaminating red blood cells. […] Purity was analyzed using a LSRII flow cytometer (BD Biosciences). […]
After cytokine stimulation, cells were centrifuged at 300 g for 5 min and washed twice with cold DPBS (Life Technologies). To access viability and apoptosis, cells were incubated with Propidium Iodide (Thermo Fisher Scientific) and APC Annexin V (BD Biosciences) and analyzed using a LSRII flow cytometer (BD Biosciences). IC50 values were determined from analysis of the viability curves of percent cell viability vs compound concentration. Data are expressed as pIC50 (negative decadic logarithm IC50) values.

CCc1cc(O)c(F)cc1-c1ccc2c(-c3nc4c([nH]3)CCN(C3CCN(C)CC3)C4)n[nH]c2c1 [Compound 1, 5-ethyl-2-fluoro-4-(3-(5-(1-methylpiperidin-4-yl)-4,5,6,7-tetrahydro-1H-imidazo[4,5-c]pyridin-2-yl)-1H-indazol-6-yl)phenol]
IC50 [1]: 6.31 nM
inhibition of IL-6-induced pSTAT3 in retina/choroid tissues [2]: 33%
IC50 ([3]; in the presence of 10 pg/ml IL-5, 72 hours): 12.6 nM
IC50 ([3]; in the presence of 1 ng/ml IL-5, 72 hours): 316 nM
